From PubChem BioAssay AID2060894 (Molecular Pharmacology Branch, DTP, NCI, 2025)

Tested on: K12877-001-R-J1-PDC complex spheroid viability
Assay: Anticancer human tumor K12877-001-R-J1-PDC patient-derived lung adenocarcinoma cell line growth inhibition [RAS]
Settings: for IC50: curve of first compound; for viability, T/C: stronger effect = lower value
In short: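 Multi-cell-type spheroids: tumor cells plus HUVEC endothelial cells and mesenchymal stem cells. RAS-pathway inhibitors were combined with targeted agents, each dosed in half-log steps down from clinical Cmax, or from 10 microM when Cmax was unknown.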
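Further: spheroids exposed to agents for one week before readout.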
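Wherever viability, T/C is given: tumour cells co-cultured with HUVEC and mesenchymal stem cells in spheroids.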

CC(Nc1ccc2c(c1)OCCn1cc(N3C(=O)OCC3C(F)F)nc1-2)C(N)=O (centres undefined) + CCn1c(-c2cc(N3CCN(C)CC3)cnc2C(C)OC)c2c3cc(ccc31)-c1csc(n1)CC(NC(=O)C1CC1C)C(=O)N1CCCC(N1)C(=O)OCC(C)(C)C2
IC50 (second compound 0.000949 µM): > 10000 nM
IC50 (second compound 0.003 µM): 7420 nM
IC50 (second compound 0.00949 µM): 4590 nM
IC50 (second compound 0.03 µM): 1250 nM
IC50 (second compound 0.0949 µM): 249 nM
IC50 (second compound 0.3 µM): 77.5 nM
viability, T/C (second compound 0.000949 µM, first compound 0.0316 µM): 80.9%
viability, T/C (second compound 0.000949 µM, first compound 0.1 µM): 81.2%
viability, T/C (second compound 0.000949 µM, first compound 0.316 µM): 81.5%
viability, T/C (second compound 0.000949 µM, first compound 1 µM): 72.4%
viability, T/C (second compound 0.000949 µM, first compound 3.16 µM): 62.2%
viability, T/C (second compound 0.000949 µM, first compound 10 µM): 56%
viability, T/C (second compound 0.003 µM, first compound 0.0316 µM): 71.6%
viability, T/C (second compound 0.003 µM, first compound 0.1 µM): 68.2%
viability, T/C (second compound 0.003 µM, first compound 0.316 µM): 63.4%
viability, T/C (second compound 0.003 µM, first compound 1 µM): 68.3%
viability, T/C (second compound 0.003 µM, first compound 3.16 µM): 62.9%
viability, T/C (second compound 0.003 µM, first compound 10 µM): 45.5%
viability, T/C (second compound 0.00949 µM, first compound 0.0316 µM): 72.7%
viability, T/C (second compound 0.00949 µM, first compound 0.1 µM): 68.9%
viability, T/C (second compound 0.00949 µM, first compound 0.316 µM): 70.6%
viability, T/C (second compound 0.00949 µM, first compound 1 µM): 69.5%
viability, T/C (second compound 0.00949 µM, first compound 3.16 µM): 59.1%
viability, T/C (second compound 0.00949 µM, first compound 10 µM): 29.9%
viability, T/C (second compound 0.03 µM, first compound 0.0316 µM): 94.3%
viability, T/C (second compound 0.03 µM, first compound 0.1 µM): 82.6%
viability, T/C (second compound 0.03 µM, first compound 0.316 µM): 64.1%
viability, T/C (second compound 0.03 µM, first compound 1 µM): 52.6%
viability, T/C (second compound 0.03 µM, first compound 3.16 µM): 42.7%
viability, T/C (second compound 0.03 µM, first compound 10 µM): 20%
viability, T/C (second compound 0.0949 µM, first compound 0.0316 µM): 80.3%
viability, T/C (second compound 0.0949 µM, first compound 0.1 µM): 61.2%
viability, T/C (second compound 0.0949 µM, first compound 0.316 µM): 43.8%
viability, T/C (second compound 0.0949 µM, first compound 1 µM): 35.8%
viability, T/C (second compound 0.0949 µM, first compound 3.16 µM): 23.7%
viability, T/C (second compound 0.0949 µM, first compound 10 µM): 12%
viability, T/C (second compound 0.3 µM, first compound 0.0316 µM): 65.9%
viability, T/C (second compound 0.3 µM, first compound 0.1 µM): 40.2%
viability, T/C (second compound 0.3 µM, first compound 0.316 µM): 32.2%
viability, T/C (second compound 0.3 µM, first compound 1 µM): 30.3%
viability, T/C (second compound 0.3 µM, first compound 3.16 µM): 19.1%
viability, T/C (second compound 0.3 µM, first compound 10 µM): 8.63%

CCc1c2c(nc3ccc(O)cc13)-c1cc3c(c(=O)n1C2)COC(=O)[C@]3(O)CC + CCn1c(-c2cc(N3CCN(C)CC3)cnc2C(C)OC)c2c3cc(ccc31)-c1csc(n1)CC(NC(=O)C1CC1C)C(=O)N1CCCC(N1)C(=O)OCC(C)(C)C2
IC50 (second compound 0.000949 µM): 4.82 nM
IC50 (second compound 0.003 µM): 4.39 nM
IC50 (second compound 0.00949 µM): 3.87 nM
IC50 (second compound 0.03 µM): 4.32 nM
IC50 (second compound 0.0949 µM): 3.81 nM
IC50 (second compound 0.3 µM): 2.73 nM
viability, T/C (second compound 0.000949 µM, first compound 0.000949 µM): 78.3%
viability, T/C (second compound 0.000949 µM, first compound 0.003 µM): 72.4%
viability, T/C (second compound 0.000949 µM, first compound 0.00949 µM): 18.2%
viability, T/C (second compound 0.000949 µM, first compound 0.03 µM): 7.02%
viability, T/C (second compound 0.000949 µM, first compound 0.0949 µM): 3.48%
viability, T/C (second compound 0.000949 µM, first compound 0.3 µM): 2.43%
viability, T/C (second compound 0.003 µM, first compound 0.000949 µM): 67.2%
viability, T/C (second compound 0.003 µM, first compound 0.003 µM): 68.8%
viability, T/C (second compound 0.003 µM, first compound 0.00949 µM): 13.6%
viability, T/C (second compound 0.003 µM, first compound 0.03 µM): 6.6%
viability, T/C (second compound 0.003 µM, first compound 0.0949 µM): 4.13%
viability, T/C (second compound 0.003 µM, first compound 0.3 µM): 2.12%
viability, T/C (second compound 0.00949 µM, first compound 0.000949 µM): 71.6%
viability, T/C (second compound 0.00949 µM, first compound 0.003 µM): 59.8%
viability, T/C (second compound 0.00949 µM, first compound 0.00949 µM): 15.8%
viability, T/C (second compound 0.00949 µM, first compound 0.03 µM): 6.3%
viability, T/C (second compound 0.00949 µM, first compound 0.0949 µM): 3.36%
viability, T/C (second compound 0.00949 µM, first compound 0.3 µM): 1.64%
viability, T/C (second compound 0.03 µM, first compound 0.000949 µM): 84.9%
viability, T/C (second compound 0.03 µM, first compound 0.003 µM): 67.8%
viability, T/C (second compound 0.03 µM, first compound 0.00949 µM): 11.5%
viability, T/C (second compound 0.03 µM, first compound 0.03 µM): 6.66%
viability, T/C (second compound 0.03 µM, first compound 0.0949 µM): 2.86%
viability, T/C (second compound 0.03 µM, first compound 0.3 µM): 1.43%
viability, T/C (second compound 0.0949 µM, first compound 0.000949 µM): 94.8%
viability, T/C (second compound 0.0949 µM, first compound 0.003 µM): 59.5%
viability, T/C (second compound 0.0949 µM, first compound 0.00949 µM): 13.8%
viability, T/C (second compound 0.0949 µM, first compound 0.03 µM): 5.27%
viability, T/C (second compound 0.0949 µM, first compound 0.0949 µM): 3.05%
viability, T/C (second compound 0.0949 µM, first compound 0.3 µM): 1.38%
viability, T/C (second compound 0.3 µM, first compound 0.000949 µM): 85.1%
viability, T/C (second compound 0.3 µM, first compound 0.003 µM): 46.9%
viability, T/C (second compound 0.3 µM, first compound 0.00949 µM): 9.52%
viability, T/C (second compound 0.3 µM, first compound 0.03 µM): 4.79%
viability, T/C (second compound 0.3 µM, first compound 0.0949 µM): 3.58%
viability, T/C (second compound 0.3 µM, first compound 0.3 µM): 1.11%
